Columns and labels:
[1] = tested on: Ii processing in HOM2 cells; assay: 35S pulse/chase of HOM2 cells, Tu36 immunoprecipitation, SDS-PAGE: Ii processing and SDS-stable class II peptide complexes; format: cell-based, human; conditions: E64D
Description: Lysates were precleared with protein A-agarose.
Samples were eluted with SDS-PAGE sample buffer.

cathepsin D = cathepsin D (Homo sapiens, UniProt P07339); conditions: Alteri et al. 1993; cited from earlier work
cathepsin S = cathepsin S (Homo sapiens, UniProt P25774); assay: Active site labeling of cysteine proteases with Cbz-[125I]-Tyr-Ala-CN2 in HOM2 cells: cathepsin S; format: cell-based
cathepsin B = cathepsin B (Homo sapiens, UniProt P07858); assay: Active site labeling of cysteine proteases with Cbz-[125I]-Tyr-Ala-CN2 in HOM2 cells: cathepsin B; format: cell-based
Description: SIDS, 1% Triton X-100 on ice.

human cathepsin H = molecular target: T1, human cathepsin H (Homo sapiens, UniProt P09668); assay: Inhibition of purified human cathepsin H; format: biochemical; conditions: purified enzyme
T1 construct: purchased Calbiochem-Novabiochem Corp., San Diego, Calif
T1 sequence (P09668 98-335): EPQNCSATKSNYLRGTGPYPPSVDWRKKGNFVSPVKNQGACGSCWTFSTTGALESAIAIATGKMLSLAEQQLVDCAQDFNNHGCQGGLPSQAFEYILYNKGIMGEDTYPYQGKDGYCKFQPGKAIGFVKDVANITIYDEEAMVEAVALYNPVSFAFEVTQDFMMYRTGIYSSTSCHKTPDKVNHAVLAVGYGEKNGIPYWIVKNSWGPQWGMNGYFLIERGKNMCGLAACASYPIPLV
Description: Purified human cathepsin H (obtained from Calbiochem-Novabiochem Corp., San Diego, Calif.) was not inhibited with LHVS nor did it display any proteolytic activity against immunoprecipitated αβIi, implying that cathepsin H is not an essential protease for Ii degradation.

[2] = tested on: Ii processing in HOM2 cells; conditions: leupeptin; Neefjes and Ploegh 1992; cited from earlier work
multiple sclerosis = assay: Treating multiple sclerosis in a human; conditions: intravenous injection once a day, 500 mg/70 kg body weight
pemphigus vulgaris = assay: Treating pemphigus vulgaris in a human; format: in vivo; conditions: topical ointment 50 mg/gm, daily
Experimental: The dose is 50 mg/gm of ointment and is applied daily to the affected area.

Sequence of cathepsin S (P25774 115-331): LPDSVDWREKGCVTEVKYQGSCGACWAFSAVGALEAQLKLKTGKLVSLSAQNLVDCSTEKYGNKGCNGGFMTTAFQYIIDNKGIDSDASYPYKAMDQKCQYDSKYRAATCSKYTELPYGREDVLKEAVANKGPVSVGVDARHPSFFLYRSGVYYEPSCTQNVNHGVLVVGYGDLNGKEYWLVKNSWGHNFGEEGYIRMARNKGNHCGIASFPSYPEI
Sequence of cathepsin D (P07339 65-412, species assumed): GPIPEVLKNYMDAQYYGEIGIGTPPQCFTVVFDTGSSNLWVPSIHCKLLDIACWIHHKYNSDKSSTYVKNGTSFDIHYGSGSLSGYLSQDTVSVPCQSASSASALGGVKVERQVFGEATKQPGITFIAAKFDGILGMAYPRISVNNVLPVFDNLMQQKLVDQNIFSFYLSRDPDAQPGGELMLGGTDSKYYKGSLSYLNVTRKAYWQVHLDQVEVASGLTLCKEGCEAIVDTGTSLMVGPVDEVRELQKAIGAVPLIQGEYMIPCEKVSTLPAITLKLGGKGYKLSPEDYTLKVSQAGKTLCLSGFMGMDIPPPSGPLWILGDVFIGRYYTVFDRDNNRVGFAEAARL

CCOC(=O)[C@H]1O[C@@H]1C(=O)N[C@@H](CC(C)C)C(=O)NCCC(C)C (relative stereo) [E64D]
SDS-stable dimer formation [1]: decrease in SDS-stable dimer formation

CC(C)[C@H](NC(=O)[C@H](Cc1ccccc1)C[C@H](O)[C@H](Cc1ccccc1)NC(=O)OC(C)(C)C)C(=O)N[C@@H](Cc1ccccc1)C(=O)N1CCOCC1 [CGP 53437]
inhibits cathepsin D (potency range) (cathepsin D): nanomolar range

CC(C)C[C@H](NC(=O)N1CCOCC1)C(=O)N[C@H](/C=C/S(=O)(=O)c1ccccc1)CCc1ccccc1 [LHVS, morpholinurea-leucine-homophenylalanine-vinylsulfone phenyl]
concentrations that specifically inhibit cathepsin S, leaving other cysteine proteases functionally active (cathepsin S): 1 to 5 nM | labeling of cathepsin S with Cbz-[125I]-Tyr-Ala-CN2 (cathepsin S; LHVS 1 nM, 1 hour preincubation at 37° C.): effectively inhibited | labeling of cathepsin B with Cbz-[125I]-Tyr-Ala-CN2 (cathepsin B; LHVS 1 nM): but not cathepsin B | labeling of cathepsin B with Cbz-[125I]-Tyr-Ala-CN2 (cathepsin B; LHVS 5 nM): decreased, although some activity remained | inhibition of purified human cathepsin H (human cathepsin H): not inhibited

CC(=O)N[C@@H](CC(C)C)C(=O)N[C@@H](CC(C)C)C(=O)N[C@H](C=O)CCCNC(=N)N [leupeptin]
SDS-stable complexes (peptide-loaded αβ-dimers) [2]: decrease

Leu-Arg-Met-vinylsulfone
effect on multiple sclerosis (multiple sclerosis): alleviates the effects of multiple sclerosis

N-(carboxybenzyl)-Arg-Met-vinylsulfone
effect on pemphigus vulgaris (pemphigus vulgaris): alleviates the effects of pemphigus vulgaris

Source: patent US7427591B2, “Suppression of immune response via inhibition of cathepsin S” (Massachusetts Institute of Technology, priority 1996, dated 2008)
